# Reference: US20100183658A1, “Novel Compounds for Enhancing MHC Class II Therapies” (The Brigham and Women's Hospital, Inc., priority 2007, published 2010)
# Entries after “also recorded” stand apart in the source; their conditions may differ. Ends that are not written are not given here. C(Compound (Ia)-maleimide) = not defined here
# Tests used:
# [1] = DR2/TCR transgenic mice and other EAE models, from a mean score of ~4; cited from earlier work
# [2] = 20 mg daily subcutaneously over two years; cited from earlier work
# MGAR cells = experiment: Cellular assay: MBP peptide loading on MGAR cells, FACS labeling with MK16 mAb; format: cell-based, human; settings: for activity relative to Compound (Ia) in loading of MBP peptide to DR2: MGAR cells, MBP peptide 1 μM, FIG. 13B, 14B
# Procedure: The cells were then labeled with biotinylated MK16 Fab and streptavidin-APC and analyzed by FACS. Cells not pulsed with peptide (green line) were used as a negative control to define background labeling of MK16.
# (§1) MGAR cells were incubated with MBP peptide (1 μM) in the presence of different compounds and the amount of DR2 bound peptide was determined by FACS labeling with the MK16 mAb.
# as §1, §1
# empty DR2 molecules = biological target: T1, empty DR2 molecules (Homo sapiens, UniProt P01903+P01911); experiment: Association of Alexa-488 MBP peptide to empty DR2 molecules after photo-cleavage of bound peptide (FP); format: biochemical; settings: photo-cleaved bound peptide, with versus without compound
# T1 construct: we generated DR/CLIP complexes as soluble molecules in CHO cells; CLIP peptide (of invariant chain, CD74) joined through a linker with a thrombin cleavage site (N, cleaved yes); made in house
# Excerpt: DM acts as a catalyst that accelerates peptide binding reactions and increases both the rate of peptide dissociation and association. […] Rigorous testing of this hypothesis required generation of empty DR molecules, a task that is challenging because DR molecules aggregate over time in the absence of peptide. Applicants therefore synthesized a peptide with a photo-cleavable residue (a derivative of phenylalanine), so that the binding site could be rapidly vacated by peptide cleavage. This approach has been reported for the creation of empty MHC class I molecules (Toebes et al., 2006, Nat. Med., 12:246-251). The photoreactive group [3-amino-3-(2-nitro) phenyl-propionic acid; […]] was placed at the P4 position of the peptide, close to the center of DR2 bound peptide. The peptide also carried an N-terminal DNP group for affinity isolation of the complex generated with this peptide. […] Applicants then loaded this peptide onto DR2 molecules, isolated the complex by DNP affinity chromatography, irradiated the samples at 360 nm at 4° C., added Alexa™-488 labeled MBP and tracked its association to DR2 by FP in the presence and absence of Compound (Ia). Applicants observed a striking Compound (Ia)-induced acceleration of Alexa™-488 MBP association to DR2 when the bound peptide was photo-cleaved compared to reactions with photo-cleavage but no Compound (Ia) as diagrammed in FIG. 5. […]
# CD4 T cell response = experiment: Immunization of HLA-DR4 transgenic mice with viral and tumor peptides, CD4 T cell response; format: in vivo; settings: co-administered with or covalently linked to peptide
# Excerpt: HLA-DR4 transgenic mice (DRA, DRB1*0401) are used to examine whether Compound (Ib), Compound (Ia) and the other compounds enhance the CD4 T cell response following immunization with viral and tumor peptides. Mice are immunized with peptides from two human pathogens (HIV and HCV) as well as peptides from two human tumor antigens (annexin V and gp100, identified in human melanomas). Applicants have previously performed binding studies with these peptides and shown that they bind with high affinity to DR4. The T cell response is analyzed in two different assays. First, the frequency of peptide-specific T cells is analyzed in draining lymph nodes with DR4/peptide tetramers. This approach provides a quantitative readout of the induced T cell response. Second, the cytokine production profile of these T cells is determined following a 48 hour in vitro re-stimulation with the relevant peptide. The cytometric bead array technique is utilized for comprehensive definition of the cytokine repertoire. Either Compound (Ia) is co-administered with the peptide of interest in the adjuvant or peptides are utilized with a covalently linked Compound (Ia) group (or other groups, depending on which one is being tested). […] These experiments are expected to establish the in vivo efficacy of Compound (Ia) and to establish appropriate dosing and administration procedures with rapid, quantitative readouts. […]
# dendritic cells = experiment: Peptide presentation by dendritic cells in vivo (MK16 labeling of draining lymph node cells); settings: co-administered at 50-200 μM s.c. with MBP peptide
# Excerpt: Applicants next established the higher levels of peptide presentation in the presence of Compound (Ia) in human antigen presenting cells (APCs). The goal of these experiments is to examine whether Compound (Ia) covalently linked to the MBP peptide (abbreviated as Compound (Ia)*MBP peptide) and Compound (Ia) co-administered with peptide (Compound (Ia)+MBP peptide) enhance binding to MHC-II in vivo compared to unmodified peptide. The MK16 mAb (Krogsgaard et al., 2000, J. Exp. Med., 191:1395-1412) is used to directly quantify DR2/MBP peptide complexes on the surface of dendritic cells in lymph nodes draining the s.c. injection site. Lymph nodes are dissected 24 hours following injection of peptides in PBS and cell suspensions are labeled with CD11c (dendritic cells), MK16 (DR2/MBP), and Annexin-V (exclusion of apoptotic cells) for FACS analysis. The efficacy of Compound (Ia)*MBP peptide and unmodified MBP peptide are compared at concentrations ranging from 1 to 100 μM administered s.c. in the flank in 0.2 ml of PBS. In the co-administration mode, Compound (Ia) is added to the inoculum at concentrations of 50-200 μM.
# [3] = mouse, in vivo
# Excerpt: An important aspect of the medicinal chemistry effort is a thorough analysis of potential in vivo toxicity.
# DR2 [4] = biological target: T2, DR2 (Homo sapiens, UniProt P01903+P01911); experiment: Real-time fluorescence polarization peptide binding assay (DR2/CLIP plus Alexa-488 labeled MBP peptide)
# DR2 [5] = biological target: T2, DR2; experiment: Dissociation of pre-bound Alexa-488 labeled MBP peptide from DR2 followed by fluorescence polarization; format: biochemical; design: we generated DR/CLIP complexes as soluble molecules in CHO cells; CLIP peptide (of invariant chain, CD74) joined through a linker with a thrombin cleavage site (N, cleaved yes); made in house; settings: for displacement (dissociation) of labeled MBP peptide from DR2 by competitor: competitor 50 μM, 150 nM DR2/50 nM Alexa-488 MBP
# Procedure: We also examined whether Compound (Ia) could induce the release of a previously bound high affinity peptide from DR2 as shown in FIG. 4B. This issue is important for potential applications of this small molecule because most DR molecules are occupied by intermediate to high affinity peptides. Applicants therefore loaded the DR2 molecule with the high affinity Alexa™-488 MBP peptide during an overnight incubation and then examined if Compound (Ia) could induce dissociation of this labeled peptide. A molar excess of an unlabeled MBP peptide was added to inhibit rebinding of the labeled peptide to DR2. […] Compound (Ia) thus substantially accelerates peptide binding by creating empty DR molecules.
# We then tested the concept of “self-catalyzed peptide loading” by synthesizing the MBP peptide with an N-terminal or C-terminal cysteine to which the Compound (Ia)-maleimide was linked. These peptide-Compound (Ia) compounds were purified by reverse-phase HPLC and their identity verified by mass spectrometry. Applicants then examined whether the linked Compound (Ia) group could displace a high affinity peptide from the DR2 binding site. For that purpose, we loaded DR2 (1.5 μM) with the Alexa™-488 labeled MBP peptide (500 nM) at 37° C. for 5 hours. The complex was then diluted to 150 nM DR2/50 nM Alexa™-488 and added to a 384-well plate in a volume of 40 μl.
# DR2/CLIP = biological target: T3, DR2/CLIP (Homo sapiens, UniProt P01903+P01911); experiment: Competition for binding of labeled MBP peptide to DR2/CLIP in the FP assay; settings: 10 nM MBP-488, 100 nM DR2/CLIP, wide dose range
# T3 construct: we generated DR/CLIP complexes as soluble molecules in CHO cells; CLIP peptide (of invariant chain, CD74) joined through a linker with a thrombin cleavage site (N, cleaved yes); made in house
# Procedure: Competitor peptides were tested over a wide dose range against 10 nM MBP-488 and 100 nM DR2/CLIP in the FP assay.
# Compound (Ia)-glatiramer acetate compounds are characterized for their ability to compete for binding of the Alexe™-488 labeled MBP peptide to DR2 in the FP assay, as well as for their ability to inhibit presentation of the MBP peptide to human MBP specific T cell clones, as described in detail above.
# [6] = system: DR2/MBP specific T cell hybridoma; experiment: T cell assay: IL-2 release by DR2/MBP specific T cell hybridoma, MBP (85-99) presented by MGAR cells; format: cell-based; settings: MGAR cells as APC
# Procedure: Peptide presentation of MBP (85-99) to T cell hybridomas by MGAR cells was measured by IL-2 release.
molecule,measurement,setting,value
glatiramer acetate,mean EAE score under treatment,[1],~2
same,reduction of relapse rate,[2],29%
O=C(Cc1c(C(=O)O)[nH]c2c(F)c(F)c(F)cc12)Nc1ccc(F)c(Cl)c1 [Compound (Id)],activity relative to Compound (Ia) in loading of MBP peptide to DR2,MGAR cells,higher activities than Compound (Ia)
O=C(Cc1c(C(=O)O)[nH]c2ccc(Cl)cc12)Nc1ccc(F)c(Cl)c1 [Compound (Ia)],peptide association to empty DR2 molecules,empty DR2 molecules,substantially accelerated peptide association to empty DR2 molecules
same,lowering of the dose of peptide required for equivalent staining / presentation,MGAR cells; 1 μM MBP peptide plus compound versus 10 μM peptide alone,approximately 10 fold
same,presentation of MBP on MGAR cells (MK16 staining),"MGAR cells; 100 μM compound, 1.7 μM MBP peptide, 30 minutes at 37° C.",significantly increased
same,CD4 T cell response following immunization,CD4 T cell response,substantial enhancement
same,loading of peptides on dendritic cells in vivo,dendritic cells,increases loading of peptides in a dose-dependent manner
same,"acute toxicity, observation of mice",[3],no sips of distress
same,fold increase of the initial rate of peptide association,DR2 [4]; neutral pH,22 fold
same,time to reach half-maximal peptide association,"DR2 [4]; pH 5.2, absence of DM, compound at 109 μM (160 minutes without compound)",7 min
same,rate of peptide binding reaction compared to DM,"DR2 [4]; pH 5.2, higher compound concentrations",faster than in the presence of DM
same,pH of maximum activity,DR2 [4]; pH range 3.75-7.0,5.25
same,fold increase of the initial rate of peptide association,DR2 [4]; pH range from pH 4.5 to 5.75,more than 58 fold
same,dissociation of previously bound high affinity labeled MBP peptide from DR2,"DR2 [5]; excess unlabeled MBP peptide, versus DMSO control",marked acceleration of peptide dissociation
same,concentration range inducing peptide dissociation,DR2 [5]; release of high affinity peptides from DR2,low micro-molar range
"MBP-C-Compound (Ia): MBP peptide with a C-terminal cysteine to which the Compound (Ia)-maleimide was linked (PGSRPHLIRLFSRDA-{C(Compound (Ia)-maleimide)}; reading uncertain; UniProt P02686 85-99, looked up, fragment)",competition against labeled MBP peptide for DR2/CLIP,DR2/CLIP,more effective competitor than unmodified MBP peptide
same,IL-2 production by T cell hybridoma,[6],higher levels of IL-2 production
same,displacement (dissociation) of labeled MBP peptide from DR2 by competitor,DR2 [5]; listed as MBP peptide with C-terminally linked Compound (Ia),more effective in displacing the labeled peptide; also recorded: more favorable
O=C(Cc1c(C(=O)O)[nH]c2ccccc12)Nc1ccc(Cl)c(Cl)c1 [Compound (Ic)],activity relative to Compound (Ia) in loading of MBP peptide to DR2,MGAR cells,higher activities than Compound (Ia)
O=C(Cc1c(C(=O)O)[nH]c2c(F)c(F)c(F)cc12)Nc1ccc(Cl)c(Cl)c1 [Compound (Ib)],activity relative to Compound (Ia) in loading of MBP peptide to DR2,MGAR cells,substantially higher activity than Compound (Ia)
same,fold higher activity than Compound (Ia) in catalyzing loading of the MBP peptide to DR2,DR2 [4]; biochemical assay,4.2 fold
"MBP peptide without linked Compound (Ia): unmodified myelin basic protein (85-99) peptide that binds with high affinity to DR2 (PGSRPHLIRLFSRDA; UniProt P02686 85-99, looked up, fragment) [reference compound]",displacement (dissociation) of labeled MBP peptide from DR2 by competitor,DR2 [5],slow dissociation
